We go through 2 compounds from patent publication US10640463B2, “Chlorhexidine crystal forms and uses thereof in medicine” (Queen Mary University of London, priority 2016, dated 2020).

Data set [1] in a line: Chlorhexidine release from HEMA-UDMA resin discs, with or without ultrasound. It counts as physicochemical. To be noted: no ultrasound, within 65 hours. How it is done:
HEMA-UDMA resin was prepared by mixing 64% urethane dimethacrylate (UDMA) (Esschem UK, Lot: 591-22) and 36% hydroxyethyl methacrylate (HEMA) (Aldrich, 128635, Lot: STBC7495V), 0.08% of N,N-dimethyl-P-toluidine (Acros Organics, Lot: A0207283001) and 0.05% dimethylamino ethyl methacrylate (Aldrich, 234907, Lot: BCBF8391V) were added. The mixture was then stirred for 15 min (800 rpm, VWR Stirrer, USA). Finally, camphorquinone (Aldrich, 12, 489-3, Lot: 2338141) was added at the proportion of 0.1%. The mixture was stirred for another 15 min (VWR Stirrer, USA), and then the viscous liquid resin was prepared. Freeze dried chlorhexidine chloride compounds produced in Example 2 (precipitated with 0.33 M CaCl2) were weighed and incorporated within the resin at a loading level of 5% by weight. To explore the effect of different morphology on the release kinetics, chlorhexidine compounds with spherical, needle and flake morphology (from Example 1, FIG. 1, panels (b) and (c)) were incorporated into the resin. Incorporation of the chlorhexidine compounds within the resin was carried out by rotating the mixture contained in a 1 ml tube for 15 s in a Rotomix (120V/60 Hz, 2850 rotations/min) (ESPE RotoMix, USA). Chlorhexidine diacetate was also incorporated in the prepared resin in the same way, with loading rates of 5%, 10% and 15% (weight %). The filled resin was then placed into a Teflon mould (10 mm in diameter ×2 mm thick) and cured through a Mylar film with a curing light (Bluedent LED pen, Bulgaria) (430-490 nm, 600 mW/sq·cm) for 30 s. Then the discs were next weighed on a microbalance (Salter Ander-180A weighing scale, UK), and chlorhexidine content in each disc was calculated.
For the release study, all sample resin discs (HEMA-UDMA) containing chlorhexidine chloride compounds or chlorhexidine diacetate powder prepared in Example 5 were kept in cuvettes containing 3 ml deionized water, and kept at room temperature. And at each time point, solutions were collected for UV absorption tests (Lambda 35, Perkin Elmer, USA) and replaced with fresh deionized water.
For the chlorhexidine chloride compound doped discs (Example 5) chlorhexidine content was fixed at 5%, and ultrasound was exerted. Four groups (five discs in each group) were repetitively treated with ultrasound for 0 s, 10 s, 20 s, 30 s, accordingly, by contacting the ultrasound probe (Piezon Master 400, Swiss, 60 Hz, 45VA) on the disc surface at time points of 1 h, 3 h, 5 h, 15 h, 25 h, 40 h, 65 h, 95 h, 140 h, 205 h. After that, no ultrasound was carried out for all the groups, but release was carried on until the 650 hour time point. The UDMA-HEMA discs containing needle and flake chlorhexidine compounds and chlorhexidine diacetate (FIG. 1, panels (b) and (c), and FIG. 3, panel (g)) were also tested (UV absorption tests) at the same time points (same sample numbers) but without ultrasound treatment. For the chlorhexidine diacetate powder doped discs chlorhexidine content of 5%, 10% and 15% were also analysed, and no ultrasound treatment was carried out.

Data set [2] is described as follows: Thermo-gravimetric analysis (TGA). It counts as physicochemical. To be noted: TGA at 10° C./min in nitrogen, 50-800° C. How it is done: The chlorhexidine chloride spheres (0.33M CaCl2 group) were analysed by Thermo-gravimetric analysis (TGA Q50, USA). Chlorhexidine diacetate crystals and CaCl2 powder (Sigma-Aldrich, C8106, Lot: SLBF7416V) were tested as comparisons. TGA was carried out at 10° C./min in a nitrogen atmosphere, over a temperature range of 50-800° C. The chlorhexidine proportion was further confirmed by the TGA result. […] The decomposition temperature of the chlorhexidine chloride spheres (210° C.) was higher than the chlorhexidine diacetate crystals (120° C.).

Another data set has as its system L929 cells. To be noted: mouse.

Experimental for L929 cells: 0.5% chlorhexidine spheres stock solution was used to prepare fresh successive dilutions in sterile deionised water to obtain the final concentrations ranging from 0.0005 to 0.25%. For controls (untreated cultures), sterile deionised water was used. 25 μl of each treatment were added into respective wells to achieve final concentrations ranging from 0.00005-0.025%.
L929 cells, a mouse fibroblast-like cell line (ECACC 85011425) were cultured in Dulbecco's Modified Eagle's Medium (DMEM; Lonza, UK) supplemented with 10% fetal bovine serum (FBS) with 100 IU/mL penicillin, 100 μg/mL streptomycin and 2 mmol/L glutamine (all from Invitrogen, UK) in an humidified incubator with 10% CO2 and 95% air at 37° C.
Cell metabolic activity was evaluated by measuring the mitochondrial activity using a method commonly known as a methyl-tetrazolium (MTT) assay. MTT assay was carried out according to the protocols outlined in ISO 1 0993-5:2009 (Biological evaluation of medical devices—Part 5: Tests for in vitro cytotoxicity).
Trypsinisation was performed by routine methods and cell suspension was counted using a haemocytometer and seeded in 96-well microtiter plates at a concentration of 10,000 cells per well. The cells were then left overnight in the incubator to adhere to the wells. Following overnight incubation, medium was removed and cells were washed twice with PBS. The cells were then treated with different concentrations of chlorhexidine spheres (0.00005-0.025%) for 24 and 48 hours. Following treatment, culture medium containing chlorhexidine spheres was removed and 50 μL of 5 mg/mL tetrazolium salt MTT (Sigma-Aldrich, Gillingham, UK) was added to each well and incubated in 37 C for 4 h. Formazan crystals generated by mitochondrial enzyme activity were dissolved by 100 μl of isopropanol and the intensity of purple coloured reaction product quantified by measuring the absorbance spectra at 570 nm. A cell viability level below 70% of control (no treatment) was regarded as the toxic concentration according to the ISO protocol.

Consider `CC(=O)O.CC(=O)O.NC(=N\CCCCCC/N=C(N)/N=C(\N)Nc1ccc(Cl)cc1)/N=C(\N)Nc1ccc(Cl)cc1` [chlorhexidine diacetate, Chlorhexidine diacetate, reference compound], for which the “chlorhexidine released by weight” value is listed as 6.7% in data set [1] (5% loading, deionized water, room temperature); 11.0% in data set [1] (10% loading); 15.1% in data set [1] (15% loading). The decomposition temperature in data set [2] was found to be 120 °C.

Regarding `[H]/N=C(\N/C(=N/[H])NCCCCCCNC(=N)NC(=N)Nc1ccc(Cl)cc1)Nc1ccc(Cl)cc1` [chlorhexidine, N,N″″1,6-Hexanediylbis[N′-(4-chlorophenyl)(imidodicarbonimidic diamide)]], the cellular viability entry in the data set with L929 cells is “below 10%”.
